Values after ≈ are worked out from the molar mass of the structure shown.
Legend:
Format in all cases: functional
[1] = tested on: Salmonella enteritidis; assay: Antimicrobial activity against Salmonella enterica subsp. enterica serovar Enteritidis ATCC 13076 after 24 hr by serial microdilution method; conditions: ATCC 13076, 24 h
[2] = tested on: Cyberlindnera jadinii; assay: Antimicrobial activity against Cyberlindnera jadinii KUEN 1031 at 105 ug/disc after 48 hr by disk diffusion method; conditions: Williopsis jadinii, KUEN 1031, 48 h; read-out: IZ
[3] = tested on: Pseudomonas aeruginosa; assay: Antimicrobial activity against Pseudomonas aeruginosa ATCC 9027 at 105 ug/disk after 24 hr by disk diffusion method; conditions: ATCC 9027, 24 h, read-out: IZ
[4] = tested on: Cyberlindnera jadinii; assay: Antimicrobial activity against Cyberlindnera jadinii KUEN 1031 serial microdilution method; conditions: Williopsis jadinii
[5] = tested on: Proteus vulgaris; assay: Antimicrobial activity against Proteus vulgaris KUEN 1329 after 24 hr by serial microdilution method; conditions: KUEN 1329, 24 h
[6] = tested on: Bacillus cereus; assay: Antimicrobial activity against Bacillus cereus DSM 4312 at 105 ug/disk after 24 hr by disk diffusion method; conditions: DSM 4312, 24 h, read-out: IZ
[7] = tested on: Proteus vulgaris; assay: Antimicrobial activity against Proteus vulgaris KUEN 1329 at 105 ug/disk after 24 hr by disk diffusion method; conditions: KUEN 1329, 24 h, read-out: IZ
[8] = tested on: Escherichia coli; assay: Antimicrobial activity against Escherichia coli 111 after 24 hr by serial microdilution method; conditions: Escherichia coli, 111, 24 h
[9] = tested on: Candida albicans; assay: Antimicrobial activity against Candida albicans ATCC 1213 by serial microdilution method
[10] = tested on: Staphylococcus aureus; assay: Antimicrobial activity against Staphylococcus aureus ATCC 29213 after 24 hr by serial microdilution method; conditions: ATCC 29213, 24 h
[11] = tested on: Pseudomonas aeruginosa; assay: Antimicrobial activity against Pseudomonas aeruginosa ATCC 9027 after 24 hr by serial microdilution method; conditions: ATCC 9027, 24 h
[12] = tested on: Salmonella enteritidis; assay: Antimicrobial activity against Salmonella enterica subsp. enterica serovar Enteritidis ATCC 13076 at 105 ug/disk after 24 hr by disk diffusion method; conditions: ATCC 13076, 24 h, read-out: IZ
[13] = tested on: Candida albicans; assay: Antimicrobial activity against Candida albicans ATCC 1213 at 105 ug/disk after 48 hr by disk diffusion method; conditions: ATCC 1213, 48 h, read-out: IZ
[14] = tested on: Streptococcus pyogenes; assay: Antimicrobial activity against Streptococcus pyogenes ATCC 176 after 24 hr by serial microdilution method; conditions: ATCC 176, 24 h
[15] = tested on: Pseudomonas aeruginosa; assay: Antimicrobial activity against Pseudomonas aeruginosa ATCC 27859 after 24 hr by serial microdilution method; conditions: ATCC 27859, 24 h
[16] = tested on: Bacillus subtilis; assay: Antimicrobial activity against Bacillus subtilis ATCC 6633 after 24 hr by serial microdilution method; conditions: ATCC 6633, 24 h
[17] = tested on: Staphylococcus aureus; assay: Antimicrobial activity against Staphylococcus aureus ATCC 29213 at 105 ug/disc after 24 hr by disk diffusion method; conditions: ATCC 29213, 24 h, read-out: IZ
[18] = tested on: Bacillus cereus; assay: Antimicrobial activity against Bacillus cereus DSM 4312 after 24 hr by serial microdilution method; conditions: DSM 4312, 24 h
[19] = tested on: Bacillus subtilis; assay: Antimicrobial activity against Bacillus subtilis ATCC 6633 at 105 ug/disk after 24 hr by disk diffusion method; conditions: ATCC 6633, 24 h, read-out: IZ
[20] = tested on: Pseudomonas aeruginosa; assay: Antimicrobial activity against Pseudomonas aeruginosa ATCC 27859 at 105 ug/disk after 24 hr by disk diffusion method; conditions: ATCC 27859, 24 h, read-out: IZ
[21] = tested on: Streptococcus pyogenes; assay: Antimicrobial activity against Streptococcus pyogenes ATCC 176 at 105 ug/disc after 24 hr by disc diffusion method; conditions: ATCC 176, 24 h, read-out: IZ
[22] = tested on: Escherichia coli; assay: Antimicrobial activity against Escherichia coli 111 at 105 ug/disk after 24 hr by disk diffusion method; conditions: Escherichia coli, 111, 24 h; read-out: IZ

Row | Compound | MIC [1] [µg/mL] | MIC [4] [µg/mL] | MIC [5] [µg/mL] | MIC [8] [µg/mL] | MIC [9] [µg/mL] | MIC [10] [µg/mL] | MIC [11] [µg/mL] | MIC [14] [µg/mL] | MIC [15] [µg/mL] | MIC [16] [µg/mL] | MIC [18] [µg/mL] | zone of inhibition at 105 µg/disc [2] [mm] | zone of inhibition at 105 µg/disc [3] [mm] | zone of inhibition at 105 µg/disc [7] [mm] | zone of inhibition at 105 µg/disc [12] [mm] | zone of inhibition at 105 µg/disc [13] [mm] | also measured
1 | O=C(CC(Sc1ccccc1)c1ccco1)c1ccc(O)cc1 (stereo not given) | 62.5 (≈ 193 µM) | 62.5 (≈ 193 µM) | 7.81 (≈ 24.1 µM) | 62.5 (≈ 193 µM) | 15.6 (≈ 48.2 µM) | 31.2 (≈ 96.3 µM) | 62.5 (≈ 193 µM) | 7.81 (≈ 24.1 µM) | 62.5 (≈ 193 µM) | 31.2 (≈ 96.3 µM) | 31.2 (≈ 96.3 µM) | 13 | 14 | 17 | 17 | 20 | zone of inhibition at 105 µg/disc [22]: 10 mm
2 | CC1(C)S[C@@H]2[C@H](NC(=O)[C@H](N)c3ccccc3)C(=O)N2[C@H]1C(=O)O [AMPICILLIN] | > 125 | 7.81 (≈ 22.4 µM) | 15.6 (≈ 44.7 µM) | > 125 | > 125 | > 125 | 7.81 (≈ 22.4 µM) | 3.9 (≈ 11.2 µM) | > 125 | > 125 | > 125 | – | – | – | – | – | –
3 | CO/N=C(\C(=O)N[C@@H]1C(=O)N2C(C(=O)O)=C(CSc3nc(=O)c(O)nn3C)CS[C@H]12)c1csc(N)n1 [CEFTRIAXONE] | 125 (≈ 225 µM) | 15.6 (≈ 28.2 µM) | 15.6 (≈ 28.2 µM) | > 125 | > 125 | > 125 | 15.6 (≈ 28.2 µM) | 3.9 (≈ 7.03 µM) | > 125 | 3.9 (≈ 7.03 µM) | > 125 | – | – | – | – | – | –

Second part, led by results:

Row | MIC [1] [µg/mL] | MIC [4] [µg/mL] | MIC [5] [µg/mL] | MIC [8] [µg/mL] | MIC [9] [µg/mL] | MIC [10] [µg/mL] | MIC [11] [µg/mL] | MIC [14] [µg/mL] | MIC [15] [µg/mL] | MIC [16] [µg/mL] | MIC [18] [µg/mL] | Compound | zone of inhibition at 105 µg/disc [2] [mm] | zone of inhibition at 105 µg/disc [3] [mm] | zone of inhibition at 105 µg/disc [7] [mm] | zone of inhibition at 105 µg/disc [12] [mm] | zone of inhibition at 105 µg/disc [13] [mm] | also measured
4 | 31.2 (≈ 80.7 µM) | > 125 | 31.2 (≈ 80.7 µM) | > 125 | > 125 | 15.6 (≈ 40.3 µM) | 15.6 (≈ 40.3 µM) | 31.2 (≈ 80.7 µM) | > 125 | 31.2 (≈ 80.7 µM) | 31.2 (≈ 80.7 µM) | O=C(CC(Sc1ccccc1)c1ccco1)c1cccc(Br)c1 (stereo not given) | 14 | 16 | 15 | 16 | 16 | zone of inhibition at 105 µg/disc [6]: 13 mm; zone of inhibition at 105 µg/disc [17]: 16 mm
5 | 62.5 (≈ 161 µM) | 125 (≈ 323 µM) | 15.6 (≈ 40.3 µM) | > 125 | 15.6 (≈ 40.3 µM) | > 125 | 31.2 (≈ 80.7 µM) | 7.81 (≈ 20.2 µM) | 31.2 (≈ 80.7 µM) | 31.2 (≈ 80.7 µM) | 62.5 (≈ 161 µM) | O=C(CC(Sc1ccccc1)c1ccco1)c1ccc(Br)cc1 (stereo not given) | 13 | 15 | 15 | 17 | 11 | –
6 | 31.2 (≈ 96.3 µM) | 7.81 (≈ 24.1 µM) | 7.81 (≈ 24.1 µM) | 15.6 (≈ 48.2 µM) | 125 (≈ 385 µM) | 15.6 (≈ 48.2 µM) | > 125 | 3.9 (≈ 12 µM) | 125 (≈ 385 µM) | 15.6 (≈ 48.2 µM) | 15.6 (≈ 48.2 µM) | O=C(CC(Sc1ccccc1)c1ccco1)c1ccccc1O (stereo not given) | 15 | 14 | 18 | 19 | 21 | zone of inhibition at 105 µg/disc [6]: 15 mm; zone of inhibition at 105 µg/disc [19]: 17 mm; zone of inhibition at 105 µg/disc [20]: 17 mm; zone of inhibition at 105 µg/disc [21]: 17 mm; zone of inhibition at 105 µg/disc [17]: 16 mm
7 | 7.81 (≈ 17.6 µM) | 15.6 (≈ 35.1 µM) | 3.9 (≈ 8.78 µM) | 125 (≈ 281 µM) | 125 (≈ 281 µM) | 125 (≈ 281 µM) | 3.9 (≈ 8.78 µM) | 3.9 (≈ 8.78 µM) | > 125 | 15.6 (≈ 35.1 µM) | 62.5 (≈ 141 µM) | CN(C)[C@@H]1C(O)=C(C(N)=O)C(=O)[C@@]2(O)C(O)=C3C(=O)c4c(O)cccc4[C@@](C)(O)[C@H]3C[C@@H]12 [TETRACYCLINE] | – | – | – | – | – | –
